Test results taken from ChEMBL document CHEMBL5465560, “Selectivity Literature for EUbOPEN Chemogenomic Library” (2024).

What was measured:
[1] = biological target: T1, Serine/threonine-protein kinase Chk1 (Homo sapiens) (UniProt O14757); test: Selectivity interaction (KinomeScan (DiscoverX)) EUB0000666a CHEK1; conditions: at 10 µM
T1 sequence (whole entry): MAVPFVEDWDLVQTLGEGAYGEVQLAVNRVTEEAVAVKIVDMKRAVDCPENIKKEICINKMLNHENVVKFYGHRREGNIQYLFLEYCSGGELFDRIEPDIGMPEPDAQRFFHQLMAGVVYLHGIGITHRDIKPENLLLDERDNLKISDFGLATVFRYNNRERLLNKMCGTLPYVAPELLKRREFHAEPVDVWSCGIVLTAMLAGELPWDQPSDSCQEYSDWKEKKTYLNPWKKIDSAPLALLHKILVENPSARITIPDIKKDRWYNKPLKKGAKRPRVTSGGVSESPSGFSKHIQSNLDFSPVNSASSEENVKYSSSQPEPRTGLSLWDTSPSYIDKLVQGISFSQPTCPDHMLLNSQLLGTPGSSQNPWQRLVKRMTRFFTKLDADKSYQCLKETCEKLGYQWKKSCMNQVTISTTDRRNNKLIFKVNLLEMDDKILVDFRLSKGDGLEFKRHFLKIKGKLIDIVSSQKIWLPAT

[2] = biological target: T2, MAP kinase-activated protein kinase 5 (Homo sapiens) (UniProt Q8IW41); conditions: at 10 µM
T2 sequence (whole entry): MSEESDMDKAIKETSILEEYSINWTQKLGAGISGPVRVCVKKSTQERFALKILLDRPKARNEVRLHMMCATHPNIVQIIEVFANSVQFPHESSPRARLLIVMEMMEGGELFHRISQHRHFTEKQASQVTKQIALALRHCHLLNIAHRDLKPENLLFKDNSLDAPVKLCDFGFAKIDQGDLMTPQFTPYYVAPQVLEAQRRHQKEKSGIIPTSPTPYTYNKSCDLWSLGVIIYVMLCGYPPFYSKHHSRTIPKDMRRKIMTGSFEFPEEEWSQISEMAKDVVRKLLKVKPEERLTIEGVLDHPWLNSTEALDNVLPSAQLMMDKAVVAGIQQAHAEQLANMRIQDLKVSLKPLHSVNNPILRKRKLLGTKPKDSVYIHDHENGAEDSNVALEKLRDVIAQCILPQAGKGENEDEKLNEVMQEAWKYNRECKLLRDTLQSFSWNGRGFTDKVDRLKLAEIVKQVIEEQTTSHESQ

[3] = biological target: T3, Mitogen-activated protein kinase kinase kinase 5 (Homo sapiens) (UniProt Q99683); test: Selectivity interaction (ProQinase) EUB0000171b MAP3K5
T3 sequence (whole entry): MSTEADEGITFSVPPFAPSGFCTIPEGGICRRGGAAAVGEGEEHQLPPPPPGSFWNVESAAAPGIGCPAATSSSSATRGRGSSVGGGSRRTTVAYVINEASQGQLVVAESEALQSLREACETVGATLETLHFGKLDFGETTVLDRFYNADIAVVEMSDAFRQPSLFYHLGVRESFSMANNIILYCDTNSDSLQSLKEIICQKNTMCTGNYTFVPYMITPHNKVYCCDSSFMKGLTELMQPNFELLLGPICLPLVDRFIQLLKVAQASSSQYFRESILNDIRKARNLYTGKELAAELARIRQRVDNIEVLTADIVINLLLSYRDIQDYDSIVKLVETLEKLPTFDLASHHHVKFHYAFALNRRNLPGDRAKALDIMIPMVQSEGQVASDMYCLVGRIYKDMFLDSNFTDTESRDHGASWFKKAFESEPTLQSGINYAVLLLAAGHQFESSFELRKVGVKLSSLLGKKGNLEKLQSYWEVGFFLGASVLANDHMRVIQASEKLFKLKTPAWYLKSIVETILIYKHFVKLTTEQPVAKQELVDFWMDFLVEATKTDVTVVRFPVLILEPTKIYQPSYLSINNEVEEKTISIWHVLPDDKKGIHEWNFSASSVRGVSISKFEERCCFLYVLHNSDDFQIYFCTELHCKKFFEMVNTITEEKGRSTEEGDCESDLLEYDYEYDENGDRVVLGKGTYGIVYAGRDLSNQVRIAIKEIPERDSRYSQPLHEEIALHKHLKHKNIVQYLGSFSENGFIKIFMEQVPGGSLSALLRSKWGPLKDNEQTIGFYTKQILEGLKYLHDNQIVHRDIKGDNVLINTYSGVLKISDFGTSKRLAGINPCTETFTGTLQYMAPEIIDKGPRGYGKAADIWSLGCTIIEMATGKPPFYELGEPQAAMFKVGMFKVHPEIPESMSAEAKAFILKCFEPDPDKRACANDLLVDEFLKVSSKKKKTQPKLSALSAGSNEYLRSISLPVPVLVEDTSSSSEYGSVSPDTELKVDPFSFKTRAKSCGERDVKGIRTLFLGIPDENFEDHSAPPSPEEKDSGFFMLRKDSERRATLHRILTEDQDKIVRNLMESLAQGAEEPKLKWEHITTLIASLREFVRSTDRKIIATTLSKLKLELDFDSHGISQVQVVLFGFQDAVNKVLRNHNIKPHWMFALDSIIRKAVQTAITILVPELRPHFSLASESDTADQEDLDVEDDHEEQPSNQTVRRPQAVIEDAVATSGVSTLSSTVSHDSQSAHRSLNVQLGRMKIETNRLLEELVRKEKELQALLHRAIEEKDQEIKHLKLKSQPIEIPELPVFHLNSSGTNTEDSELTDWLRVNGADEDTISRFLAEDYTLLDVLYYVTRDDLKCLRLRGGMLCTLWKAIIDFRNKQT

[4] = biological target: Rho-associated protein kinase 1 (Homo sapiens) (UniProt Q13464); test: Selectivity interaction (ActivX KiNativ screen (ex vivo kinase selectivity in human PBMCs)) EUB0001619a ROCK1; format: cell-based; conditions: PBMC, at 1 µM
Sequence of Rho-associated protein kinase 1 (Homo sapiens) (Q13464 2-1354 limits assumed): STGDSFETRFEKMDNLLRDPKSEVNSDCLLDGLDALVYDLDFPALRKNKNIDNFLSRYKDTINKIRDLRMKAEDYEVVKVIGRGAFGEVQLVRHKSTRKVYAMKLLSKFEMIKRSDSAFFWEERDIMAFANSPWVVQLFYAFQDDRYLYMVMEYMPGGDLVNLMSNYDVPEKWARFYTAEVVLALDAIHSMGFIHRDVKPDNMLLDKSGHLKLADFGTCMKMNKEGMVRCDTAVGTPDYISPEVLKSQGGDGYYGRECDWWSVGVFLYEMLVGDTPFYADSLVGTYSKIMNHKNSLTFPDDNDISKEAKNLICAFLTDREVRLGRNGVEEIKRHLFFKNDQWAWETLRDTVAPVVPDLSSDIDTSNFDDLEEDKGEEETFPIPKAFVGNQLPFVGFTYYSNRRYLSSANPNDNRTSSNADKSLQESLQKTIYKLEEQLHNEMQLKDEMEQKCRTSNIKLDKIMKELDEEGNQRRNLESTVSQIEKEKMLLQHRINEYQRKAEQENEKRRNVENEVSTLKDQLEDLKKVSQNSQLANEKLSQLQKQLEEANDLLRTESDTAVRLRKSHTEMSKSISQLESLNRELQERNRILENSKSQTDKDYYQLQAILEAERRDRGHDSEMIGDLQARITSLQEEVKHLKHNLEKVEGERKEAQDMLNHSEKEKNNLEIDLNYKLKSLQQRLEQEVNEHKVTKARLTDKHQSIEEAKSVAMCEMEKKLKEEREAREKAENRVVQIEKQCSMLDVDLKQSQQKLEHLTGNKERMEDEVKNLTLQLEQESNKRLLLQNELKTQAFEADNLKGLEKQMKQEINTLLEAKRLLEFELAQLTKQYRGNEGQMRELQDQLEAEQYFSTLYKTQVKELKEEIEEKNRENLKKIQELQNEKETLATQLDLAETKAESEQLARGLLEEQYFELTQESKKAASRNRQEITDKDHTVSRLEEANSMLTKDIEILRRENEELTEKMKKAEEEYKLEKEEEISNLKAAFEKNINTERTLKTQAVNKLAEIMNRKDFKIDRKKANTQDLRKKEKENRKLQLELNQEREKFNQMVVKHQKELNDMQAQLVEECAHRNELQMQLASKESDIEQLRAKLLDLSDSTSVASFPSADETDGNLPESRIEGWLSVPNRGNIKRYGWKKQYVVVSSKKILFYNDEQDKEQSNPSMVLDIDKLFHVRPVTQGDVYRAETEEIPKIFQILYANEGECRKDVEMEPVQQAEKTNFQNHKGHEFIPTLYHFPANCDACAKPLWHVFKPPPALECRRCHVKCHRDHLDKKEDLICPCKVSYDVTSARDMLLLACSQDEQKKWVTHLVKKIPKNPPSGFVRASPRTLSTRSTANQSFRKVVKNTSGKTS

[5] = biological target: T4, Rhodopsin kinase GRK1 (Homo sapiens) (UniProt Q15835); test: Selectivity interaction (KinomeScan (DiscoverX)) EUB0000607a GRK1; conditions: at 10 µM
T4 sequence (whole entry): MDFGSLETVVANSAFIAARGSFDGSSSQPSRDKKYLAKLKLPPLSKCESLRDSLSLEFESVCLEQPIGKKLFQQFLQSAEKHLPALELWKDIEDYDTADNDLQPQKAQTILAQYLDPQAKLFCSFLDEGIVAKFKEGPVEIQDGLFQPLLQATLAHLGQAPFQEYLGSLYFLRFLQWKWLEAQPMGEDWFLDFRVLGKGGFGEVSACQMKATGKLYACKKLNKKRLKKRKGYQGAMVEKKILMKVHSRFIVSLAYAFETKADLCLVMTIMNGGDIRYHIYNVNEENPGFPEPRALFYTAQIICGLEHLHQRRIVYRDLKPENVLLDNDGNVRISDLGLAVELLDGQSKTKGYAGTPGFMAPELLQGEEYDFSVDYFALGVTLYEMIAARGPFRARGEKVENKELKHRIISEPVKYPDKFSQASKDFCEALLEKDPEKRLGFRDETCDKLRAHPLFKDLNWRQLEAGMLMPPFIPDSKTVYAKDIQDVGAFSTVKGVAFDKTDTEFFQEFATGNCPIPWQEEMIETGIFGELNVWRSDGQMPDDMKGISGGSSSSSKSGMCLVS

O=C(NOC[C@H](O)CO)c1ccc(F)c(F)c1Nc1ccc(I)cc1F
% of control [1]: 74%

Cc1cc([C@@H](C)Nc2ccccc2C(=O)O)c2nc(N3CCOCC3)cc(=O)n2c1 [AZD-6482]
% of control [2]: 100%

C=CC(=O)Nc1cccc(C(=O)Nc2ccc(Nc3cc(-c4[nH]c(SC)nc4C)ccn3)cc2)c1
% of control ([3]; at 1 µM): 92%
% of control ([3]; at 5 µM): 95%

N#Cc1cccc(-c2c[nH]c3ncnc(N4CCOCC4)c23)c1
% of inhibition [4]: 2%

CNC(=O)Nc1ccc(-c2nc(N3CC4CCC(C3)O4)c3cnn(C4CCC5(CC4)OCCO5)c3n2)cc1
% of control [5]: 100%
